Data on 23 compounds can be found in patent US20050197338A1, “Substituted pyrazole urea compounds for the treatment of inflammation” (priority 2003, published 2005).

The structures appear in SMILES notation. Where a name gives a salt, the structure may show the parent alone.

This assay has as its target T1, human IKK-2 (rhIKK-2 homodimer) (Homo sapiens, UniProt O14920).
T1 construct: FLAG (DYKDDDDKD) (C); made in house; host or cells: insect cells (baculovirus, pFastBac)
T1 sequence (O14920 1-756): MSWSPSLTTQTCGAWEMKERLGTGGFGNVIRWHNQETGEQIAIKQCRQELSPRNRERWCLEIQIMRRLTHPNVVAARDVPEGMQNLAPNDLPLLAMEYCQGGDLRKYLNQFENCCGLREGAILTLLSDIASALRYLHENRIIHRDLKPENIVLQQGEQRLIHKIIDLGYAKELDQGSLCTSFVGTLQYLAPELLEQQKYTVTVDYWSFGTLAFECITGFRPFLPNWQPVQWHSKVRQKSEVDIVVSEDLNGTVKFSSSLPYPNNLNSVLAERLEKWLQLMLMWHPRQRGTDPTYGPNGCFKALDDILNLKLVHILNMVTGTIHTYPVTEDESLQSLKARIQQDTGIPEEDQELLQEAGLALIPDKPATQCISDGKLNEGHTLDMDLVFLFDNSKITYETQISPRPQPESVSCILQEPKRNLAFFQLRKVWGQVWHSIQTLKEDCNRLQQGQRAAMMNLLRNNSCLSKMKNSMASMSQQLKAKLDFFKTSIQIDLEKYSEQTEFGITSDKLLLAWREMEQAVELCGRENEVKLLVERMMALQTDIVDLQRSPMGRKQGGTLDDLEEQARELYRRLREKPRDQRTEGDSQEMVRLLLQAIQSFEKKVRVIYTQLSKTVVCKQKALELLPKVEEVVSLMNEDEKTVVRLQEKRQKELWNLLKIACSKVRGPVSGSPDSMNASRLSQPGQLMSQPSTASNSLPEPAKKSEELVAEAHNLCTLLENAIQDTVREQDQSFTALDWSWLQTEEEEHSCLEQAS
Kind of assay: IKK-2 Resin Enzyme Assay (Human IKK-2 Enzyme Assay). The format is biochemical. The conditions noted are these: human IKK-2, resin enzyme assay; read-out: IC50 (μM) hIKK-2. An excerpt: Materials: SAM^2™96 Biotin capture plates were from Promega. Anti-FLAG affinity resin, FLAG-peptide, NP-40 (Nonidet P-40), BSA, ATP, ADP, AMP, LPS (E. coli serotype 0111:B4), and dithiothreitol were obtained from Sigma Chemicals. Antibodies specific for NEMO (IKK-γ) (FL-419), IKK-1 (H-744), IKK-2(H-470) and IκBa(C-21) were purchased from Santa Cruz Biotechnology. Ni-NTA resin was purchased from Qiagen. Peptides were purchased from American Peptide Company. Protease inhibitor cocktail tablets were from Boehringer Mannheim. Sephacryl S-300 column was from Pharmacia LKB Biotechnology. Centriprep-10 concentrators with a molecular weight cutoff of 10 kDa and membranes with molecular weight cut-off of 30 kDa were obtained from Amicon. [γ-^33P] ATP (2500 Ci/mmol) and [γ-^32P] ATP (6000 Ci/mmol) were purchased from Amersham. The other reagents used were of the highest grade commercially available.
Cloning and Expression: cDNAs of human IKK-1 and IKK-2 were amplified by reverse transcriptase-polymerase chain reaction from human placental RNA (Clonetech). hlKK-1 was subcloned into pFastBac HTa (Life Technologies) and expressed as N-terminal His6-tagged fusion protein. The hlKK-2 cDNA was amplified using a reverse oligonucleotide primer which incorporated the peptide sequence for a FLAG-epitope tag at the C-terminus of the IKK-2 coding region (DYKDDDDKD). The hlKK-2:FLAG cDNA was subcloned into the baculovirus vector pFastBac. The rhIKK-2 ([…]) mutant was constructed in the same vector used for wild type rhIKK-2 using a QuikChange™ mutagenesis kit (Stratagene). Viral stocks of each construct were used to infect insect cells grown in 40 L suspension culture. […] Cell lysates were stored at −80° C. until purification of the recombinant proteins was undertaken as described below.
Enzyme Isolation: All purification procedures were carried out at 4° C. unless otherwise noted. Buffers used are: buffer A: 20 mM Tris-HCl, pH 7.6, containing 50 mM NaCl, 20 mM NaF, 20 mM β-Glycerophosphate, 500 μM sodium orthovanadate, 2.5 mM metabisulfite, 5 mM benzamidine, 1 mM EDTA, 0.5 mM EGTA, 10% glycerol, 1 mM DTT, 1× Complete™ protease inhibitors; buffer B: same as buffer A, except 150 mM NaCl, and buffer C: same as buffer A, except 500 mM NaCl.
Isolation of rhIKK-2 homodimer: A 10-liter culture of baculovirus-expressing IKK-2 tagged with FLAG peptide was centrifuged and the cell pellet (MOI=0.1 and 1=72 h) was re-suspended in buffer A. These cells were microfluidized, and centrifuged at 100,000×g for 45 min. Supernatant was passed over a G-25 column equilibrated with Buffer A. Protein peak was collected and incubated with anti-FLAG affinity resin on a rotator overnight in buffer B. The resin was washed in batch with 10-15 bed volumes of buffer C. Washed resin was poured into a column and rhIKK-2 homodimer was eluted using 5 bed volumes of buffer B containing FLAG peptide. 5 mM DTT, 0.1% NP-40 and BSA (concentrated to 0.1% in final amount) was added to the eluted enzyme before concentrating in using an Amicon membrane with a molecular weight cut-off of 30 kDa. Enzyme was aliquoted and stored at −80° C.
IKK-2 Resin Enzyme Assay: IKK-2 kinase activity was measured using a biotinylated IκBα peptide (Gly-Leu-Lys-Lys-Glu-Arg-Leu-Leu-Asp-Asp-Arg-His-Asp-Ser32-Gly-Leu-Asp-Ser36-Met-Lys-Asp-Glu-Glu) (American Peptide Co.). 20 μL of the standard reaction mixture contained 5 μM biotinylated IκBα peptide, 0.1 μCi/reaction [γ-^33P] ATP (Amersham) (about 1×10^5 cpm), 1 μM ATP (Sigma), 1 mM DTT (Sigma), 2 mM MgCl2 (Sigma), 2 mM MnCl2 (Sigma), 10 mM NaF (Sigma), 25 mM Hepes (Sigma) buffer, pH 7.6 and 20 μL enzyme solution and 10 μL inhibitor in a final volume of 50 μL. After incubation at 25° C. for 30 min, 150 μL resin (Dowex anion-exchange resin AG1X8 200-400 mesh) in 900 mM formate, pH 3.0 was added to each well to stop the reaction. Resin was allowed to settle for 1 h and 50 μL of supernatant was removed to a Micolite-2 flat bottom plate (Dynex). […]
For `NC(=O)NC(=O)Nc1cn(-c2ccc(Br)c(C(F)(F)F)c2)nc1C(N)=O` [Example 2, 4-({[(aminocarbonyl)amino]carbonyl}amino)-1-[4-bromo-3-(trifluoromethyl)phenyl]-1H-pyrazole-3-carboxamide], the IC50 is 10.7 µM.

As for `NC(=O)Nc1cn(-c2ccc(I)c(Cl)c2)nc1C(N)=O` [Example 6, 4-[(aminocarbonyl)amino]-1-(3-chloro-4-iodophenyl)-1H-pyrazole-3-carboxamide], the IC50 amounted to 0.546 µM.

With `NC(=O)Nc1cn(-c2ccc(C(=O)N3CCOCC3)cc2)nc1C(N)=O` [Example 9, 4-[(aminocarbonyl)amino]-1-[4-(morpholin-4-yl-carbonyl)phenyl]-1H-pyrazole-3-carboxamide], the IC50 stood at 1.43 µM.

As to `COc1ccc(-n2cc(NC(N)=O)c(C(N)=O)n2)cc1` [Example 10, 4-[(aminocarbonyl)amino]-1-(4-methoxyphenyl)-1H-pyrazole-3-carboxamide trifluoroacetate], the IC50 was 2.91 µM.

In the case of `COc1ccc(Cc2cccc(-n3cc(NC(N)=O)c(C(N)=O)n3)c2)cc1OC` [Example 11, 4-[(aminocarbonyl)amino]-1-[3-(3,4-dimethoxybenzyl)phenyl]-1H-pyrazole-3-carboxamide], the IC50 worked out at 6.36 µM.

Take `NC(=O)c1nn(-c2cccc(Br)c2)cc1NC(N)=S` [Example 12, 4-[(aminocarbonothioyl)amino]-1-(3-bromophenyl)-1H-pyrazole-3-carboxamide]: the IC50 worked out at 1.43 µM.

In the case of `NC(=O)Nc1cn(-c2cccc(-c3ccnc(Cl)c3)c2)nc1C(N)=O` [Example 13, 4-[(aminocarbonyl)amino]-1-[3-(2-chloropyridin-4-yl)phenyl]-1H-pyrazole-3-carboxamide], the IC50 stood at 0.38 µM.

`COc1cc(-c2cccc(-n3cc(NC(N)=O)c(C(N)=O)n3)c2)c(Cl)cn1` [Example 14, trifluoroacetate]: the IC50 amounted to 8.95 µM.

Regarding `CNC(=O)Nc1cn(-c2ccc(I)cc2)nc1C(N)=O` [Example 17, 1-(4-iodophenyl)-4-{[(methylamino)carbonyl]amino}-1H-pyrazole-3-carboxamide], the IC50 worked out at 1.72 µM.

Consider `Cc1ccc(-n2cc(NC(N)=O)c(C(N)=O)n2)cc1` [Example 18, 4-[(aminocarbonyl)amino]-1-(4-methylphenyl)-1H-pyrazole-3-carboxamide], for which the IC50 was found to be 0.3 µM.

Consider `NC(=O)Nc1cn(-c2cccc(Br)c2)nc1C(N)=O` [Example 20, 4-[(aminocarbonyl)amino]-1-(3-bromophenyl)-1H-pyrazole-3-carboxamide], for which the IC50 stood at 0.61 µM.

With `NC(=O)Nc1cn(-c2ccc(-c3cccnc3)cc2)nc1C(N)=O` [Example 21, 4-[(aminocarbonyl)amino]-1-(4-pyridin-3-ylphenyl)-1H-pyrazole-3-carboxamide], the IC50 is 2.86 µM.

Regarding `NC(=O)Nc1cn(-c2ccc(-c3cccc(O)c3)cc2)nc1C(N)=O` [Example 22, 4-[(aminocarbonyl)amino]-1-(3′-hydroxy-1,1′-biphenyl-4-yl)-1H-pyrazole-3-carboxamide], the IC50 came to 1.2 µM.

With `NC(=O)Nc1cn(-c2ccc(-c3ccccc3O)cc2)nc1C(N)=O` [Example 23, 4-[(aminocarbonyl)amino]-1-(2′-hydroxy-1,1′-biphenyl-4-yl)-1H-pyrazole-3-carboxamide], the IC50 came to 1.64 µM.

As for `NC(=O)Nc1cn(-c2ccc(-c3cccc(OC(F)(F)F)c3)cc2)nc1C(N)=O` [Example 24, 4-[(aminocarbonyl)amino]-1-[3′-(trifluoromethoxy)-1,1′-biphenyl-4-yl]-1H-pyrazole-3-carboxamide], the IC50 came out at 7.73 µM.

For `NC(=O)Nc1cn(-c2ccc(-c3ccc(F)cc3)cc2)nc1C(N)=O` [Example 25, 4-[(aminocarbonyl)amino]-1-(4′-fluoro-1,1′-biphenyl-4-yl)-1H-pyrazole-3-carboxamide], the IC50 was 1.55 µM.

In the case of `NC(=O)Nc1cn(-c2ccc(-c3ccc[nH]3)cc2)nc1C(N)=O` [Example 26, 4-[(aminocarbonyl)amino]-1-[4-(1H-pyrrol-2-yl)phenyl]-1H-pyrazole-3-carboxamide], the IC50 is 0.59 µM.

Regarding `N#CCc1cccc(-c2ccc(-n3cc(NC(N)=O)c(C(N)=O)n3)cc2)c1` [Example 27, 4-[(aminocarbonyl)amino]-1-[3′-(cyanomethyl)-1,1′-biphenyl-4-yl]-1H-pyrazole-3-carboxamide], the IC50 was 1.36 µM.

Take `NCc1cccc(-c2ccc(-n3cc(NC(N)=O)c(C(N)=O)n3)cc2)c1` [Example 28, 4-[(aminocarbonyl)amino]-1-[3′-(aminomethyl)-1,1′-biphenyl-4-yl]-1H-pyrazole-3-carboxamide]: the IC50 stood at 2.79 µM.

Regarding `COC(=O)c1ccc(-c2ccc(-n3cc(NC(N)=O)c(C(N)=O)n3)cc2)c(N)c1` [Example 29, methyl 2-amino-4′-{3-(aminocarbonyl)-4-[(aminocarbonyl)amino]-1H-pyrazol-1-yl}-1,1′-biphenyl-4-carboxylate], the IC50 stood at 0.53 µM.

Regarding `NC(=O)Nc1cn(-c2ccc(-c3ccccc3F)cc2)nc1C(N)=O` [Example 30, 4-[(aminocarbonyl)amino]-1-(2′-fluoro-1,1′-biphenyl-4-yl)-1H-pyrazole-3-carboxamide], the IC50 came to 3 µM.

As to `CC(C)(C)NC(=O)c1cccc(-c2ccc(-n3cc(NC(N)=O)c(C(N)=O)n3)cc2)c1` [Example 31, 4-[(aminocarbonyl)amino]-1-{3′-[(tert-butylamino)carbonyl]-1,1′-biphenyl-4-yl}-1H-pyrazole-3-carboxamide], the IC50 came to 4.79 µM.

`N#C/C=C/c1cccc(-c2ccc(-n3cc(NC(N)=O)c(C(N)=O)n3)cc2)c1` [Example 32, 4-[(aminocarbonyl)amino]-1-{3′-[(E)-2-cyanovinyl]-1,1′-biphenyl-4-yl}-1H-pyrazole-3-carboxamide]: the IC50 stood at 1.16 µM.
